In patent US20070259841A1, “Combinations for the treatment of rheumatoid arthritis” (CombinatoRx, Incorporated, priority 2002, published 2007):

Legend:
TNF-α secretion = assay: TNF-α ELISA: TNF-alpha suppression in PMA/ionomycin-induced white blood cells; conditions: for TNF-α inhibition achievable by steroid alone: even at very high concentrations
[1] = 200 mg/day orally; cited from earlier work

Clc1ccccc1C(c1ccccc1)(c1ccccc1)n1ccnc1 [Clotrimazole, clotrimazole]
TNF-alpha Suppression (TNF-α secretion; Diflorasone 0.0 nM, Clotrimazole 0.008 μM): 4.92%
TNF-alpha Suppression (TNF-α secretion; Diflorasone 0.0 nM, Clotrimazole 0.014 μM): 5.86%
TNF-alpha Suppression (TNF-α secretion; Diflorasone 0.0 nM, Clotrimazole 0.031 μM): 12.47%
TNF-alpha Suppression (TNF-α secretion; Diflorasone 0.0 nM, Clotrimazole 0.063 μM): 11.43%
TNF-alpha Suppression (TNF-α secretion; Diflorasone 0.0 nM, Clotrimazole 0.125 μM): 18.40%
TNF-alpha Suppression (TNF-α secretion; Diflorasone 0.0 nM, Clotrimazole 0.250 μM): 14.29%
TNF-alpha Suppression (TNF-α secretion; Diflorasone 0.0 nM, Clotrimazole 0.500 μM): 20.07%
TNF-alpha Suppression (TNF-α secretion; Diflorasone 0.0 nM, Clotrimazole 1.000 μM): 19.90%
TNF-alpha Suppression (TNF-α secretion; Diflorasone 0.0 nM, Clotrimazole 2.000 μM): 30.02%

C[C@@H]1C[C@H]2[C@@H]3CCC4=CC(=O)C=C[C@]4(C)[C@@]3(F)[C@@H](O)C[C@]2(C)[C@@]1(O)C(=O)CO [Dexamethasone, dexamethasone]
TNF-alpha Suppression (TNF-α secretion; Dexamethasone 1.0 nM, Econazole 0.000 μM): 23.96%
TNF-alpha Suppression (TNF-α secretion; Dexamethasone 2.0 nM, Econazole 0.000 μM): 33.10%
TNF-alpha Suppression (TNF-α secretion; Dexamethasone 4.0 nM, Econazole 0.000 μM): 36.87%
TNF-alpha Suppression (TNF-α secretion; Dexamethasone 8.0 nM, Econazole 0.000 μM): 40.33%
TNF-alpha Suppression (TNF-α secretion; Dexamethasone 16.0 nM, Econazole 0.000 μM): 44.12%
TNF-alpha Suppression (TNF-α secretion; Dexamethasone 32.0 nM, Econazole 0.000 μM): 51.26%
TNF-alpha Suppression (TNF-α secretion; Dexamethasone 64.0 nM, Econazole 0.000 μM): 54.35%
TNF-alpha Suppression (TNF-α secretion; Dexamethasone 127.0 nM, Econazole 0.000 μM): 52.97%
TNF-alpha Suppression (TNF-α secretion; Dexamethasone 255.0 nM, Econazole 0.000 μM): 59.93%
TNF-α inhibition achievable by steroid alone (TNF-α secretion; dexamethasone alone): 60%
suppression of TNF-α secretion (TNF-α secretion; single agent concentration of 4 nM, PMA and ionomycin stimulated PBMCs): 40%

CC(=O)OCC(=O)[C@@]1(OC(C)=O)[C@@H](C)C[C@H]2[C@@H]3C[C@H](F)C4=CC(=O)C=C[C@]4(C)[C@@]3(F)[C@@H](O)C[C@@]21C [Diflorasone, diflorasone]
TNF-alpha Suppression (TNF-α secretion; Diflorasone 0.5 nM, Clotrimazole 0.000 μM): 9.84%
TNF-alpha Suppression (TNF-α secretion; Diflorasone 0.9 nM, Clotrimazole 0.000 μM): 16.12%
TNF-alpha Suppression (TNF-α secretion; Diflorasone 1.9 nM, Clotrimazole 0.000 μM): 21.93%
TNF-alpha Suppression (TNF-α secretion; Diflorasone 3.8 nM, Clotrimazole 0.000 μM): 29.01%
TNF-alpha Suppression (TNF-α secretion; Diflorasone 7.5 nM, Clotrimazole 0.000 μM): 36.86%
TNF-alpha Suppression (TNF-α secretion; Diflorasone 15.0 nM, Clotrimazole 0.000 μM): 41.37%
TNF-alpha Suppression (TNF-α secretion; Diflorasone 30.0 nM, Clotrimazole 0.000 μM): 49.96%
TNF-alpha Suppression (TNF-α secretion; Diflorasone 60.0 nM, Clotrimazole 0.000 μM): 48.95%
TNF-alpha Suppression (TNF-α secretion; Diflorasone 120.0 nM, Clotrimazole 0.000 μM): 47.05%
TNF-α inhibition achievable by steroid alone (TNF-α secretion; diflorasone alone): 47%
suppression of TNF-α secretion (TNF-α secretion; single agent concentration of 3.8 nM, P/I stimulated PBMCs): 29%

Clc1ccc(COC(Cn2ccnc2)c2ccc(Cl)cc2Cl)cc1 (stereo not shown) [Econazole, econazole]
TNF-alpha Suppression (TNF-α secretion; Dexamethasone 0.0 nM, Econazole 0.035 μM): 13.30%
TNF-alpha Suppression (TNF-α secretion; Dexamethasone 0.0 nM, Econazole 0.070 μM): 20.05%
TNF-alpha Suppression (TNF-α secretion; Dexamethasone 0.0 nM, Econazole 0.141 μM): 14.11%
TNF-alpha Suppression (TNF-α secretion; Dexamethasone 0.0 nM, Econazole 0.281 μM): 16.99%
TNF-alpha Suppression (TNF-α secretion; Dexamethasone 0.0 nM, Econazole 1.124 μM): 38.71%
TNF-alpha Suppression (TNF-α secretion; Dexamethasone 0.0 nM, Econazole 2.249 μM): 43.90%
TNF-alpha Suppression (TNF-α secretion; Dexamethasone 0.0 nM, Econazole 4.497 μM): 53.07%
TNF-alpha Suppression (TNF-α secretion; Dexamethasone 0.0 nM, Econazole 8.995 μM): 70.06%

CC(=O)N1CCN(c2ccc(OCC3COC(Cn4ccnc4)(c4ccc(Cl)cc4Cl)O3)cc2)CC1 (stereo not shown) [ketoconazole]
serum concentration [1]: about 3.2 micrograms
